The target of the experiment is T1, Tyrosine-protein kinase JAK3 (Homo sapiens, UniProt P52333).
T1 sequence (P52333 whole entry): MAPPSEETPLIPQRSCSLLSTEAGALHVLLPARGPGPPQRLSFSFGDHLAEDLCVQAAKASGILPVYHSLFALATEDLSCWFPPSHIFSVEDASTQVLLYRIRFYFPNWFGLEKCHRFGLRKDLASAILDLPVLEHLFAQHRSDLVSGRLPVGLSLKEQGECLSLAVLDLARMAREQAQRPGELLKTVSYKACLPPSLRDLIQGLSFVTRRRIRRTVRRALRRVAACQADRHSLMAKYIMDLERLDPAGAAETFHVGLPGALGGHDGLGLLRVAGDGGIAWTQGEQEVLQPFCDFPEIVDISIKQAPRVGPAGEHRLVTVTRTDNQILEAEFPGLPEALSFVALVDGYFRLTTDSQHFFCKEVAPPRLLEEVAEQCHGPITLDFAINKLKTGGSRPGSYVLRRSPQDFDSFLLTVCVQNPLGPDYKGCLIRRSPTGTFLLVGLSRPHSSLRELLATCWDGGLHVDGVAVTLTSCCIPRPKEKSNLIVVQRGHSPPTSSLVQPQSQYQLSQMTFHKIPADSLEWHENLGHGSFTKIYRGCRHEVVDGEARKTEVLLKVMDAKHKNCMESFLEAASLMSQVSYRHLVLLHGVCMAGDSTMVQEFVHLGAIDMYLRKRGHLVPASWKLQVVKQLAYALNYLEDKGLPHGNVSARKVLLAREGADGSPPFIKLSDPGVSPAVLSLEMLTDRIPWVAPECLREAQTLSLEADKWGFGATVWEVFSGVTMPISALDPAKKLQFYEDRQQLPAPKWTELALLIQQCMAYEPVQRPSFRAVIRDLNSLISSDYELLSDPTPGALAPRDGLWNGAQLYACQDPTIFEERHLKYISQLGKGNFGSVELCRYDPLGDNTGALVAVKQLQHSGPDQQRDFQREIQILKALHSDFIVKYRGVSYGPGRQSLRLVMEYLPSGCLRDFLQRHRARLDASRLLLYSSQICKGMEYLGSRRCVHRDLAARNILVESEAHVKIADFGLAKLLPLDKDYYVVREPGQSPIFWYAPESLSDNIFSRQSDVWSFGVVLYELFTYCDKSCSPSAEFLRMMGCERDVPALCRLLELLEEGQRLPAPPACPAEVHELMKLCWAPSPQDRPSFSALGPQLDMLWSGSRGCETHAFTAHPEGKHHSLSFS
The experiment in a line: Inhibition of JAK3 (unknown origin).

In the case of `COc1nn(C)cc1Nc1nccc(-c2c[nH]c3c(NC(=O)[C@@H](C)N4CCN(C)CC4)cccc23)n1` [(2R)-N-(3-{2-[(3-methoxy-1-methyl-1H-pyrazol-4-yl)amino]pyrimidin-4-yl}-1H-indol-7-yl)-2-(4-methylpiperazin-1-yl)propanamide], the IC50 (commonly the midpoint of a concentration-inhibition curve) is more than 30 µM.
